Measurements reported in patent US20110218244A1, “CREATINE ß-ALANINATE: A NOVEL SALT FOR INCREASING […] PERFORMANCE” (priority 2009, published 2011).
Read-outs that look alike come from different tables or passages of the source.

Experiments:
individuals = conditions: cited from earlier work
[1] = test system: intramuscular carnosine content; conditions: after 10 week supplementation; cited from earlier work

NCCC(=O)N[C@@H](Cc1cnc[nH]1)C(=O)O [carnosine, β-alanyl-L-histidine]
paraesthesia symptoms (individuals; greater quantities, ingested as dipeptides in meat): do not cause the same symptoms

NCCC(=O)O [β-alanine, 3-Aminopropanoic acid]
increase in intramuscular carnosine content, average [1]: 80%
amount above which ingestion causes paraesthesia (individuals; in solution or as powder in gelatin capsules): above 10 mg per kg body weight
time at which paraesthesia begins after oral administration (individuals; oral): about 20 minutes

anserine
paraesthesia symptoms (individuals; in vivo): do not cause the same symptoms

creatine β-alaninate
more β-alanine administrable before eliciting symptoms of paraesthesia, compared with β-alanine alone (human subjects; administered as creatine β-alaninate): roughly 100%
single dose administered before the onset of parasthesia was noted (human subjects; oral, gelatin capsules, human subjects): up to 55.00 mg/kg
equivalent β-alanine dose before the onset of parasthesia (human subjects; salt mass consists of about 40.45% β-alanine): about 22.25 mg/kg
